{"source": "patent US9018173B2", "about": "“Materials and methods for suppressing inflammatory and neuropathic pain” (Indiana University Research and Technology Corp., priority 2010, dated 2015)", "key": {"[1]": {"system": "tail kinking and body contortion", "assay": "Observation of side-effects after i.p. injection in rats", "type": "in vivo, rat", "conditions": "20 mg/kg i.p.", "text": "(§1) Referring now to FIG. 24. Biodistribution and side-effects of TAT-CBD3. […] Oxygenated blood was collected from a cardiac puncture. […] The 95% confidence limits are also indicated."}, "[2]": {"system": "capsaicin-induced meningeal blood flow changes", "conditions": "read-out: IC50 of percent inhibition of capsaicin-induced blood flow; dural application; versus averaged TAT-scramble; n=4-5"}, "[3]": {"system": "anxiety-associated behavior", "assay": "Elevated plus maze (EPM)", "type": "in vivo, C57BL6 mice", "conditions": "for Elevated Plus Maze: Closed arm entries / Elevated Plus Maze: Closed arm latency to enter / Elevated Plus Maze: Closed arm latency to exit / Elevated Plus Maze: Open arm entries / Elevated Plus Maze: Open arm latency to enter / Elevated Plus Maze: Open arm latency to exit: C57BL6 mice, 1 h after injection, 5 min test"}, "[4]": {"system": "tail kinking and body contortion", "assay": "Observation of side-effects after i.p. injection in mice", "type": "in vivo", "text": "as §1\nThe possible effects of TAT-CBD3 on motor coordination, locomotor function, sedation (rotarod test) and hippocampal-dependent memory (Morris water-maze test) was investigated."}, "[5]": {"system": "cortical layer V pyramidal neurons", "assay": "Cortical slice recordings of evoked EPSCs", "type": "cell-based, CD1 mice", "conditions": "10 μM"}, "[6]": {"target": "CaV2.2 current density in hippocampal neurons (Rattus norvegicus, UniProt Q02294)", "sequence (Q02294 whole entry)": "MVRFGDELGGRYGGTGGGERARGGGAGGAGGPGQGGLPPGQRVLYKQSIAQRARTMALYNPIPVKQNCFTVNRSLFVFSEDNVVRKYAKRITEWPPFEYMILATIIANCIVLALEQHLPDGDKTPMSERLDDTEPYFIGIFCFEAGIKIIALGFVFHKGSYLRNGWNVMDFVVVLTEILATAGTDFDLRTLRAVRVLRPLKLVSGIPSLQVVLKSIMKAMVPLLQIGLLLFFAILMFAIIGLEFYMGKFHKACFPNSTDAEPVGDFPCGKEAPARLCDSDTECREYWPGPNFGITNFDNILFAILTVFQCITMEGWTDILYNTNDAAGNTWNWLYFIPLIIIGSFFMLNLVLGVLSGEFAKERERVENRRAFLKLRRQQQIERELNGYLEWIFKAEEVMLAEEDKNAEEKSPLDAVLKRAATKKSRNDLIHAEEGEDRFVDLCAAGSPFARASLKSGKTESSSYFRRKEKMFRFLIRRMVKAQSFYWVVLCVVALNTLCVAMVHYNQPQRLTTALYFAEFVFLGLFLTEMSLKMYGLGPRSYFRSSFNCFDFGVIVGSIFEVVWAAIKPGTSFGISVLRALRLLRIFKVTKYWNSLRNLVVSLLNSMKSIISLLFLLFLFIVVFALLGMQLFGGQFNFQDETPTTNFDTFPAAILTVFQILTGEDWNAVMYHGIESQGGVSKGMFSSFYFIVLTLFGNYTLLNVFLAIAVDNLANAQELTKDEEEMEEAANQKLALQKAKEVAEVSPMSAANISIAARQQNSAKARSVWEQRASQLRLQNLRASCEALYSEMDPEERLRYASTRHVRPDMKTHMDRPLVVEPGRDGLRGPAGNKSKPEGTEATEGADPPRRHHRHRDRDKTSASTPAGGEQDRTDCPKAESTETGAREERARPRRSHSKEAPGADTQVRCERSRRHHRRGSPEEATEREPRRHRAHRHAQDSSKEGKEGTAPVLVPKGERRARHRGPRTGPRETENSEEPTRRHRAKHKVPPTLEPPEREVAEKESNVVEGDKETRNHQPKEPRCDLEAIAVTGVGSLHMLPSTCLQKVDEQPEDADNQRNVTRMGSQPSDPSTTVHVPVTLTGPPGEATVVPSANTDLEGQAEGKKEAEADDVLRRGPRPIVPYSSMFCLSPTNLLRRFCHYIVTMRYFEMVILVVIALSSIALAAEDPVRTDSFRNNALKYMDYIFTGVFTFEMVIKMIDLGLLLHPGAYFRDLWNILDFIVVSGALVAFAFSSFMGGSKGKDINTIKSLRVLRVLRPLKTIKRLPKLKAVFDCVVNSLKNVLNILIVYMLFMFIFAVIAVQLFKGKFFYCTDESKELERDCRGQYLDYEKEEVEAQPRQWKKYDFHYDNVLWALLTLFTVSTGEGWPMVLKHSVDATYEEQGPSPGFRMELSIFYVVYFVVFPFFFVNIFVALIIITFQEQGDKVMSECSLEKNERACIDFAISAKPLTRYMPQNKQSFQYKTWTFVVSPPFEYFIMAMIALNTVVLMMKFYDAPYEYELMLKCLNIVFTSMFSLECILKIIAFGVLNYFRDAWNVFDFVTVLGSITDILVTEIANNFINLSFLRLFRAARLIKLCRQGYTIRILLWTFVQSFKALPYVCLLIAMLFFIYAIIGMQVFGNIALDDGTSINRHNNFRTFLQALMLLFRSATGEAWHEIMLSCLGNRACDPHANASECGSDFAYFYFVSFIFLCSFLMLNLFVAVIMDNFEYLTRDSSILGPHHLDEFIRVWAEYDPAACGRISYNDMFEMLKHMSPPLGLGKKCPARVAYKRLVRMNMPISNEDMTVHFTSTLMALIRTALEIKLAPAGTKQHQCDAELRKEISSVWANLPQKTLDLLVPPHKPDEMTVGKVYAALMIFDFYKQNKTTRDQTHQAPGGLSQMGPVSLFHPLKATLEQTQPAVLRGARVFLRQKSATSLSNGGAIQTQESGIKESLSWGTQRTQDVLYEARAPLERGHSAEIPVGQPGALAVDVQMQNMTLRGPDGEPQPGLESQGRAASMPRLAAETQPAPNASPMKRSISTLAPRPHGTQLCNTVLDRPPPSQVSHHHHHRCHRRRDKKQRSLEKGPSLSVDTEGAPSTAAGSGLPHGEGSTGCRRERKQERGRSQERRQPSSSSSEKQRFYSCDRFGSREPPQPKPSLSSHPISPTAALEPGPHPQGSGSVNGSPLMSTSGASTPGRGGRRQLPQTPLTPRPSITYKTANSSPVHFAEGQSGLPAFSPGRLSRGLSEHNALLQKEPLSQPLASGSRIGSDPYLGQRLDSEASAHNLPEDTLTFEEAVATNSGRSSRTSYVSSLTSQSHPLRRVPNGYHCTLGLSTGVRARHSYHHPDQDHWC", "sequence (P54287 whole entry partner)": "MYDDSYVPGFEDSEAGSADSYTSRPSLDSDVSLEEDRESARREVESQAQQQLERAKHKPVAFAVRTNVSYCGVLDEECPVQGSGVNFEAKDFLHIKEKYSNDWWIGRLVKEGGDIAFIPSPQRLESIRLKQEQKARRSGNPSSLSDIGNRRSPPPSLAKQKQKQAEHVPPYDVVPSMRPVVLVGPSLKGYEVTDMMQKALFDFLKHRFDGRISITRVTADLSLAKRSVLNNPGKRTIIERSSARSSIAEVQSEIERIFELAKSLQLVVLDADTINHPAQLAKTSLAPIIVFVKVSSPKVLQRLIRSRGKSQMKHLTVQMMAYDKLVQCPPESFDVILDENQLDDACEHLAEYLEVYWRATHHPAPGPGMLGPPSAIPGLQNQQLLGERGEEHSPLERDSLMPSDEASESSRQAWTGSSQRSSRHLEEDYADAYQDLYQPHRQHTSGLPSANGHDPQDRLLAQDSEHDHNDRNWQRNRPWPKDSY", "sequence (P54290 25-944 partner limits assumed)": "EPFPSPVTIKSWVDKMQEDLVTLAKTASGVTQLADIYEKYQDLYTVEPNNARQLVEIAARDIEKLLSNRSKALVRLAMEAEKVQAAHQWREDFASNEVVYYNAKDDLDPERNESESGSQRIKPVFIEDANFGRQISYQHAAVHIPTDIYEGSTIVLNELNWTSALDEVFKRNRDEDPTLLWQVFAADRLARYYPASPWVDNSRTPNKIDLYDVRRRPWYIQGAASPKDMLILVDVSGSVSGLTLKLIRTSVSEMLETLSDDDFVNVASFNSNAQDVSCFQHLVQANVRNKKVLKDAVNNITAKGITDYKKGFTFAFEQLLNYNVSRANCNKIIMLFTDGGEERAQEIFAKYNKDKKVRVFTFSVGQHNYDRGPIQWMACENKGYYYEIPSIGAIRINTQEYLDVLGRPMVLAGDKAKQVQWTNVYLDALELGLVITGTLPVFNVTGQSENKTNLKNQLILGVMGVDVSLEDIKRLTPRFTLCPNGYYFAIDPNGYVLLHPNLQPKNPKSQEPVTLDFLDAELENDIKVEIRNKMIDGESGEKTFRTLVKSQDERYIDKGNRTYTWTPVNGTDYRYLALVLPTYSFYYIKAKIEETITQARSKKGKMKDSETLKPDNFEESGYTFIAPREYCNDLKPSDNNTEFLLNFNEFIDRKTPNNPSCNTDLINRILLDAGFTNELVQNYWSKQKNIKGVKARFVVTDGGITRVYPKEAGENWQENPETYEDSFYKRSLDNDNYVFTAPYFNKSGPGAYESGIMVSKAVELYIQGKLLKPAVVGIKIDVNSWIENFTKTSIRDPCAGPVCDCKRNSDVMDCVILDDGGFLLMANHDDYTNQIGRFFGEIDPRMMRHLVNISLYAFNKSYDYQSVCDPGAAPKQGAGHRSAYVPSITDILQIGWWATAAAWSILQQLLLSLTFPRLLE", "sequence (P54290 945-1091 partner limits assumed)": "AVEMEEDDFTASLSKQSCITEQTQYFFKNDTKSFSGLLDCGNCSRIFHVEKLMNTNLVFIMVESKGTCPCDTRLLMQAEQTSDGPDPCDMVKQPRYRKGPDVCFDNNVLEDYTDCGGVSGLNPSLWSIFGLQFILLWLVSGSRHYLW", "assay": "Whole-cell patch-clamp Ca2+ currents in hippocampal neurons", "type": "cell-based", "conditions": "co-expression with CRMP-2 in hippocampal neurons; +10 mV"}, "[7]": {"target": "T1, interaction between tubulin and CRMP-2 (Rattus norvegicus, UniProt P47942)", "T1 construct": "from tissue; host or cells: rat brain / spinal cord lysates (tubulin)", "assay": "Immunoprecipitation of CRMP-2/tubulin in the presence of peptides", "type": "binding", "conditions": "spinal cord lysates"}, "[8]": {"system": "CaV2.2 surface expression in CAD cells", "assay": "CaV2.2 surface expression in CAD cells (immunocytochemistry, surface biotinylation)", "type": "cell-based", "procedure": "Catecholamine A Differentiated (CAD) cells. CAD cells were grown at 37° C. and in 5% CO2 (Sarstedt, Newton, N.C.) in Ham's F12/EMEM medium (GIBCO, Grand Island, N.Y.), supplemented with 8% fetal bovine serum (FBS; Sigma, St. Louis, Mo.) and 1% penicillin/streptomycin ([…], 10,000 U/ml penicillin G sodium and 10,000 μg/ml streptomycin sulfate). Cells were passaged every 6-7 days at a 1:25 dilution.\nTransient transfection. Adherent cultures were transfected with cDNAs using Lipofectamine 2000 (Invitrogen) as described previously. About 2-3% transfection efficiencies in hippocampal neurons was achieved routinely, 35-40% in DRG, and 75-80% in CAD cells transfected with this method. Typically, cultured cells were transfected with equal amounts of different cDNA constructs and experiments performed two days later.\nCell Surface Biotinylation. Biotinylation was performed as described. […]\nImmunocytochemistry. […] Images were acquired on a Nikon Ti swept-field confocal microscope using a 60×, 1.4 NA lens and standard FITC/Texas red fluorescence cubes with a cooled Cascade 512B digital camera (Photometrics, Tucson, Ariz.). […]"}}, "note": "“Also recorded” adds a separate entry of the source. Residues, ends and D or L forms follow the SMILES beside them.", "data": [{"molecule": "CC(C)C[C@H](NC(=O)CNC(=O)[C@H](CCCNC(=N)N)NC(=O)[C@@H]1CCCN1C(=O)[C@@H](NC(=O)CNC(=O)[C@H](CCCNC(=N)N)NC(=O)[C@H](CC(C)C)NC(=O)[C@H](CCC(=O)O)NC(=O)[C@H](C)NC(=O)[C@H](CC(C)C)NC(=O)[C@H](CCCNC(=N)N)NC(=O)[C@H](CO)NC(=O)[C@H](CCCNC(=N)N)NC(=O)[C@H](C)NC(=O)[C@H](CCCNC(=N)N)NC(=O)[C@H](CCCNC(=N)N)NC(=O)[C@H](CCCNC(=N)N)NC(=O)[C@H](CCC(N)=O)NC(=O)[C@H](CCCNC(=N)N)NC(=O)[C@H](CCCNC(=N)N)NC(=O)[C@H](CCCCN)NC(=O)[C@H](CCCCN)NC(=O)[C@H](CCCNC(=N)N)NC(=O)CNC(=O)[C@@H](N)Cc1ccc(O)cc1)C(C)C)C(=O)O", "note": "[TAT-CBD3] (H-YGRKKRRQRRRARSRLAELRGVPRGL-OH; N-terminus and C-terminus assumed)", "values": [{"measurement": "duration of contortion and tail kinking", "setting": "[1]", "value": "dissipated fifteen seconds following their first appearance"}, {"measurement": "onset of contortion and tail kinking after injection", "setting": "[1]", "value": "about 15 seconds"}, {"measurement": "side-effects observed", "setting": "[1]", "value": "whole-body lordosis-like contortion (black arrow) and tail kinking; also recorded: Transient contortions were observed"}, {"measurement": "number of episodes of contortion and tail kinking", "setting": "[1]; 60 min observation", "value": "Only a single episode of contortion and tail kinking movement"}, {"measurement": "IC50", "setting": "[2]", "value": "3.1 ± 1.1", "unit": "µM"}, {"measurement": "Elevated Plus Maze: Closed arm entries", "setting": "[3]; 0.1 mg/kg i.p.", "value": "19.1 ± 1.4"}, {"measurement": "Elevated Plus Maze: Closed arm latency to enter", "setting": "[3]; 0.1 mg/kg i.p.", "value": "4.5 ± 2.2", "unit": "s"}, {"measurement": "Elevated Plus Maze: Closed arm latency to exit", "setting": "[3]; 0.1 mg/kg i.p.", "value": "14.9 ± 2.9", "unit": "s"}, {"measurement": "Elevated Plus Maze: Open arm entries", "setting": "[3]; 0.1 mg/kg i.p.", "value": "13.6 ± 1.6"}, {"measurement": "Elevated Plus Maze: Open arm latency to enter", "setting": "[3]; 0.1 mg/kg i.p.", "value": "10.3 ± 2.7", "unit": "s"}, {"measurement": "Elevated Plus Maze: Open arm latency to exit", "setting": "[3]; 0.1 mg/kg i.p.", "value": "17.7 ± 2.5", "unit": "s"}, {"measurement": "Elevated Plus Maze: Closed arm entries", "setting": "[3]; 1 mg/kg i.p.", "value": "26.4 ± 4.2"}, {"measurement": "Elevated Plus Maze: Closed arm latency to enter", "setting": "[3]; 1 mg/kg i.p.", "value": "2.4 ± 2.1", "unit": "s"}, {"measurement": "Elevated Plus Maze: Closed arm latency to exit", "setting": "[3]; 1 mg/kg i.p.", "value": "11.1 ± 2.6", "unit": "s"}, {"measurement": "Elevated Plus Maze: Open arm entries", "setting": "[3]; 1 mg/kg i.p.", "value": "19.7 ± 3.1"}, {"measurement": "Elevated Plus Maze: Open arm latency to enter", "setting": "[3]; 1 mg/kg i.p.", "value": "10.1 ± 2.9", "unit": "s"}, {"measurement": "Elevated Plus Maze: Open arm latency to exit", "setting": "[3]; 1 mg/kg i.p.", "value": "16.4 ± 3.1", "unit": "s"}, {"measurement": "Elevated Plus Maze: Closed arm entries", "setting": "[3]; 10 mg/kg i.p.", "value": "27.4 ± 7.0"}, {"measurement": "Elevated Plus Maze: Closed arm latency to enter", "setting": "[3]; 10 mg/kg i.p.", "value": "5.3 ± 2.2", "unit": "s"}, {"measurement": "Elevated Plus Maze: Closed arm latency to exit", "setting": "[3]; 10 mg/kg i.p.", "value": "10.6 ± 3.5", "unit": "s"}, {"measurement": "Elevated Plus Maze: Open arm entries", "setting": "[3]; 10 mg/kg i.p.", "value": "20.0 ± 6.1"}, {"measurement": "Elevated Plus Maze: Open arm latency to enter", "setting": "[3]; 10 mg/kg i.p.", "value": "4.6 ± 1.9", "unit": "s"}, {"measurement": "Elevated Plus Maze: Open arm latency to exit", "setting": "[3]; 10 mg/kg i.p.", "value": "11.1 ± 2.1", "unit": "s"}, {"measurement": "EPM time in and entries into open/closed arms", "setting": "[3]; any dose, compared to TAT-Scramble", "value": "neither time spent in the open or closed arms, nor frequency of entries into the open nor closed arms were altered"}, {"measurement": "side-effects immediately following injection", "setting": "[4]; 10 and 50 mg/kg", "value": "A single episode of kinking at the base of the tail and whole body contortion was observed in mice"}, {"measurement": "tail kinking episodes", "setting": "[4]; n=7 each condition", "value": "only a single episode of tail kinking movement was observed in the mice"}, {"measurement": "dose giving mild motor impairment relative to dose required to reduce hypersensitivity in vivo", "setting": "[4]; transient tail kinking and body contortion", "value": "more than 50 fold"}, {"measurement": "body contortion", "setting": "[4]; up to 50 mg/kg, n=7", "value": "no body contortion was observed in mice"}]}, {"molecule": "ARSRLAELRGVPRGL (CBD3)", "values": [{"measurement": "paired-pulse ratio (PPR)", "setting": "[5]", "value": "increased pair pulse ratios"}, {"measurement": "CRMP-2-mediated increase in CaV2.2 current density", "setting": "[6]", "value": "eliminated"}, {"measurement": "interaction between tubulin and CRMP-2 (immunoprecipitation)", "setting": "[7]", "value": "did not affect"}, {"measurement": "CaV2.2 localisation on co-expression", "setting": "[8]; co-expression of CaV2.2 with CBD3 in CAD cells", "value": "almost complete retention of the channel in cytoplasmic aggregates"}, {"measurement": "surface expression of co-expressed CaV2.2 (surface biotinylation)", "setting": "[8]; expressed in CAD cells", "value": "prevented surface expression"}]}]}
